From ChEMBL document CHEMBL1275511, “Molecular and biochemical characterization of SHV-56, a novel inhibitor-resistant beta-lactamase from Klebsiella pneumoniae” (Antimicrob Agents Chemother, 2008)
In brackets after ≈: the same amount, converted by molar mass.

What was measured:
Escherichia coli [1] = assay: Antimicrobial activity against Escherichia coli JM109 harboring pE1MD plasmid expressing beta-lactamase SHV-56 by agar dilution method in presence of clavulanic acid; format: functional
Escherichia coli [2] = assay: Ratio of Kcat to Km for Escherichia coli Inhibitor-resistant beta-lactamase SHV-56; conditions: JM109
Escherichia coli [3] = assay: Activity of Escherichia coli Inhibitor-resistant beta-lactamase SHV-56; conditions: JM109
Escherichia coli [4] = assay: Antimicrobial activity against Escherichia coli JM109 harboring pSC1 plasmid expressing beta-lactamase SHV-56 by agar dilution method in presence of clavulanic acid; format: functional
Escherichia coli [5] = assay: Antimicrobial activity against Escherichia coli JM109 harboring pE1MD plasmid expressing beta-lactamase SHV-56 by agar dilution method; format: functional
Escherichia coli [6] = assay: Antimicrobial activity against Escherichia coli JM109 by agar dilution method in presence of clavulanic acid; format: functional
Escherichia coli [7] = assay: Antimicrobial activity against Escherichia coli JM109 by agar dilution method; format: functional
Escherichia coli [8] = assay: Antimicrobial activity against Escherichia coli JM109 harboring pE1 plasmid expressing beta-lactamase SHV-11 by agar dilution method; format: functional
Klebsiella pneumoniae [9] = assay: Antimicrobial activity against Klebsiella pneumoniae Kp2792 expressing beta-lactamase SHV-56 by agar dilution method in presence of clavulanic acid; format: functional
Klebsiella pneumoniae [10] = assay: Antimicrobial activity against Klebsiella pneumoniae Kp2792 expressing beta-lactamase SHV-56 by agar dilution method; format: functional
Escherichia coli [11] = assay: Antimicrobial activity against Escherichia coli JM109 harboring pE1 plasmid expressing beta-lactamase SHV-11 by agar dilution method in presence of clavulanic acid; format: functional
Escherichia coli [12] = assay: Antimicrobial activity against Escherichia coli JM109 harboring pSC1 plasmid expressing beta-lactamase SHV-56 by agar dilution method; format: functional
Escherichia coli [13] = assay: Antimicrobial activity against Escherichia coli JM109 harboring pE1 plasmid expressing beta-lactamase SHV-11 by agar dilution method in presence of Tazobactam; format: functional
Escherichia coli [14] = assay: Antimicrobial activity against Escherichia coli JM109 harboring pSC1 plasmid expressing beta-lactamase SHV-56 by agar dilution method in presence of Tazobactam; format: functional
Escherichia coli [15] = assay: Antimicrobial activity against Escherichia coli JM109 harboring pE1MD plasmid expressing beta-lactamase SHV-56 by agar dilution method in presence of Tazobactam; format: functional
Escherichia coli [16] = assay: Antimicrobial activity against Escherichia coli JM109 by agar dilution method in presence of Tazobactam; format: functional
Klebsiella pneumoniae [17] = assay: Antimicrobial activity against Klebsiella pneumoniae Kp2792 expressing beta-lactamase SHV-56 by agar dilution method in presence of Tazobactam; format: functional
[18] = Inhibition of Escherichia coli Inhibitor-resistant beta-lactamase SHV-56; parameters: species or system JM109
Klebsiella pneumoniae [19] = assay: microbe, parasite or virus in culture; conditions: Kp2792
Escherichia coli [20] = assay: Antimicrobial activity against Escherichia coli JM109 harboring pE1 plasmid expressing beta-lactamase SHV-11 by agar dilution method in presence of Sulbactam; format: functional
Escherichia coli [21] = assay: Antimicrobial activity against Escherichia coli JM109 harboring pE1MD plasmid expressing beta-lactamase SHV-56 by agar dilution method in presence of Sulbactam; format: functional
Escherichia coli [22] = assay: Antimicrobial activity against Escherichia coli JM109 harboring pSC1 plasmid expressing beta-lactamase SHV-56 by agar dilution method in presence of Sulbactam; format: functional
[23] = substrate: CC(=O)OCC1=C(C(=O)O)N2C(=O)[C@@H](NC(=O)Cc3cccs3)[C@H]2SC1; assay: (§1) Activity of Escherichia coli beta-lactamase SHV-11; conditions: JM109
[24] = substrate: CC1(C)S[C@@H]2[C@H](NC(=O)[C@H](C(=O)O)c3ccsc3)C(=O)N2[C@H]1C(=O)O; assay: as §1; conditions: JM109
[25] = substrate: CO/N=C(\C(=O)N[C@@H]1C(=O)N2C(C(=O)[O-])=C(C[N+]3(C)CCCC3)CS[C@H]12)c1csc(N)n1; assay: as §1; conditions: JM109
[26] = substrate: CO[C@@]1(NC(=O)Cc2cccs2)C(=O)N2C(C(=O)O)=C(COC(N)=O)CS[C@@H]21; assay: as §1; conditions: JM109
[27] = substrate: CC(C)(O/N=C(\C(=O)N[C@@H]1C(=O)N2C(C(=O)[O-])=C(C[n+]3ccccc3)CS[C@H]12)c1csc(N)n1)C(=O)O; assay: as §1; conditions: JM109
[28] = substrate: CCN1CCN(C(=O)N[C@@H](C(=O)N[C@@H]2C(=O)N3[C@@H]2SC(C)(C)[C@@H]3C(=O)O)c2ccccc2)C(=O)C1=O; assay: as §1; conditions: JM109
[29] = substrate: CO/N=C(\C(=O)N[C@@H]1C(=O)N2C(C(=O)O)=C(COC(C)=O)CS[C@H]12)c1csc(N)n1; assay: as §1; conditions: JM109
[30] = substrate: CO/N=C(\C(=O)N[C@@H]1C(=O)N2C(C(=O)O)=C(CSc3nc(=O)c(O)nn3C)CS[C@H]12)c1csc(N)n1; assay: as §1; conditions: JM109
[31] = substrate: C[C@H]1[C@H](NC(=O)/C(=N\OC(C)(C)C(=O)O)c2csc(N)n2)C(=O)N1S(=O)(=O)O; assay: as §1; conditions: JM109
[32] = substrate: CO/N=C(\C(=O)N[C@@H]1C(=O)N2C(C(=O)O)=C(COC(N)=O)CS[C@H]12)c1ccco1; assay: as §1; conditions: JM109
[33] = substrate: CC(=O)OCC1=C(C(=O)O)N2C(=O)[C@@H](NC(=O)Cc3cccs3)[C@H]2SC1; assay: (§2) Ratio of Kcat to Km for Escherichia coli beta-lactamase SHV-11; conditions: JM109
[34] = substrate: CC1(C)S[C@@H]2[C@H](NC(=O)[C@H](C(=O)O)c3ccsc3)C(=O)N2[C@H]1C(=O)O; assay: as §2; conditions: JM109
[35] = substrate: CCN1CCN(C(=O)N[C@@H](C(=O)N[C@@H]2C(=O)N3[C@@H]2SC(C)(C)[C@@H]3C(=O)O)c2ccccc2)C(=O)C1=O; assay: as §2; conditions: JM109
[36] = substrate: CO/N=C(\C(=O)N[C@@H]1C(=O)N2C(C(=O)O)=C(CSc3nc(=O)c(O)nn3C)CS[C@H]12)c1csc(N)n1; assay: as §2; conditions: JM109
[37] = substrate: CO/N=C(\C(=O)N[C@@H]1C(=O)N2C(C(=O)O)=C(COC(N)=O)CS[C@H]12)c1ccco1; assay: as §2; conditions: JM109

Molecule: CC1(C)S[C@@H]2[C@H](NC(=O)[C@H](C(=O)O)c3ccsc3)C(=O)N2[C@H]1C(=O)O [TICARCILLIN]
- MIC (Escherichia coli [1]): 128 µg/mL
- kcat/Km (Escherichia coli [2]): 70000 M⁻¹ s⁻¹
- Km (Escherichia coli [3]): 450 µM
- kcat (Escherichia coli [3]): 30 s⁻¹
- MIC (Escherichia coli [4]): 256 µg/mL
- MIC (Escherichia coli [5]): 2050 µg/mL (≈ 5330 µM)
- MIC (Escherichia coli [6]): 2 µg/mL
- MIC (Escherichia coli [7]): 4 µg/mL (≈ 10.4 µM)
- MIC (Escherichia coli [8]): 2050 µg/mL (≈ 5330 µM)
- MIC (Klebsiella pneumoniae [9]): 1020 µg/mL
- MIC (Klebsiella pneumoniae [10]): > 4100 µg/mL
- MIC (Escherichia coli [11]): 2 µg/mL
- MIC (Escherichia coli [12]): > 4100 µg/mL

Molecule: CC(=O)OCC1=C(C(=O)O)N2C(=O)[C@@H](NC(=O)Cc3cccs3)[C@H]2SC1 [CEPHALOTHIN]
- kcat/Km (Escherichia coli [2]): 5000 M⁻¹ s⁻¹
- Km (Escherichia coli [3]): 20 µM
- kcat (Escherichia coli [3]): 0.1 s⁻¹
- MIC (Escherichia coli [5]): 8 µg/mL (≈ 20.2 µM)
- MIC (Escherichia coli [7]): 4 µg/mL (≈ 10.1 µM)
- MIC (Escherichia coli [8]): 8 µg/mL (≈ 20.2 µM)
- MIC (Klebsiella pneumoniae [10]): 8 µg/mL (≈ 20.2 µM)
- MIC (Escherichia coli [12]): 8 µg/mL (≈ 20.2 µM)

Molecule: CO[C@@]1(NC(=O)Cc2cccs2)C(=O)N2C(C(=O)O)=C(COC(N)=O)CS[C@@H]21
- kcat (Escherichia coli [3]): < 0.01 s⁻¹

Molecule: CCN1CCN(C(=O)N[C@@H](C(=O)N[C@@H]2C(=O)N3[C@@H]2SC(C)(C)[C@@H]3C(=O)O)c2ccccc2)C(=O)C1=O [PIPERACILLIN]
- MIC (Escherichia coli [13]): 2 µg/mL
- kcat/Km (Escherichia coli [2]): 1e+06 M⁻¹ s⁻¹
- Km (Escherichia coli [3]): 50 µM
- kcat (Escherichia coli [3]): 50 s⁻¹
- MIC (Escherichia coli [5]): 64 µg/mL (≈ 124 µM)
- MIC (Escherichia coli [7]): 2 µg/mL (≈ 3.86 µM)
- MIC (Escherichia coli [8]): 64 µg/mL (≈ 124 µM)
- MIC (Escherichia coli [14]): 2 µg/mL
- MIC (Klebsiella pneumoniae [10]): 512 µg/mL (≈ 989 µM)
- MIC (Escherichia coli [15]): 1 µg/mL
- MIC (Escherichia coli [12]): 512 µg/mL (≈ 989 µM)
- MIC (Escherichia coli [16]): 1 µg/mL
- MIC (Klebsiella pneumoniae [17]): 4 µg/mL

Molecule: CC(C)(O/N=C(\C(=O)N[C@@H]1C(=O)N2C(C(=O)[O-])=C(C[n+]3ccccc3)CS[C@H]12)c1csc(N)n1)C(=O)O
- kcat (Escherichia coli [3]): < 0.01 s⁻¹

Molecule: CO/N=C(\C(=O)N[C@@H]1C(=O)N2C(C(=O)O)=C(COC(N)=O)CS[C@H]12)c1ccco1
- kcat (Escherichia coli [3]): < 0.01 s⁻¹

Molecule: C[C@H]1[C@H](NC(=O)/C(=N\OC(C)(C)C(=O)O)c2csc(N)n2)C(=O)N1S(=O)(=O)O
- kcat (Escherichia coli [3]): < 0.01 s⁻¹

Molecule: CC1(C)[C@H](C(=O)O)N2C(=O)C[C@H]2S1(=O)=O [SULBACTAM]
- IC50 [18]: 300 nM

Molecule: CO/N=C(\C(=O)N[C@@H]1C(=O)N2C(C(=O)O)=C(COC(C)=O)CS[C@H]12)c1csc(N)n1 [CEFOTAXIME]
- kcat (Escherichia coli [3]): < 0.01 s⁻¹
- MIC (Escherichia coli [7]): ≤ 0.1 µg/mL
- MIC (Klebsiella pneumoniae [10]): ≤ 0.1 µg/mL

Molecule: CO/N=C(\C(=O)N[C@@H]1C(=O)N2C(C(=O)O)=C(CSc3nc(=O)c(O)nn3C)CS[C@H]12)c1csc(N)n1
- kcat (Escherichia coli [3]): < 0.01 s⁻¹

Molecule: CC1(C)S[C@@H]2[C@H](NC(=O)[C@H](N)c3ccccc3)C(=O)N2[C@H]1C(=O)O [AMPICILLIN]
- MIC (Klebsiella pneumoniae [19]): 128 µg/mL (≈ 366 µM)
- MIC (Escherichia coli [20]): 128 µg/mL
- MIC (Escherichia coli [21]): 64 µg/mL
- MIC (Escherichia coli [5]): 1020 µg/mL (≈ 2930 µM)
- MIC (Escherichia coli [7]): 4 µg/mL (≈ 11.4 µM)
- MIC (Escherichia coli [8]): 1020 µg/mL (≈ 2930 µM)
- MIC (Escherichia coli [22]): 128 µg/mL
- MIC (Klebsiella pneumoniae [10]): > 4100 µg/mL
- MIC (Escherichia coli [12]): 2050 µg/mL (≈ 5860 µM)

Molecule: C[C@@H](O)[C@H]1C(=O)N2C(C(=O)O)=C(SCCNC=N)C[C@H]12 [IMIPENEM ANHYDROUS]
- MIC (Escherichia coli [7]): ≤ 0.1 µg/mL
- MIC (Klebsiella pneumoniae [10]): ≤ 0.1 µg/mL

Molecule: CO/N=C(\C(=O)N[C@@H]1C(=O)N2C(C(=O)[O-])=C(C[N+]3(C)CCCC3)CS[C@H]12)c1csc(N)n1
- kcat (Escherichia coli [3]): < 0.01 s⁻¹
- MIC (Escherichia coli [7]): ≤ 0.1 µg/mL
- MIC (Klebsiella pneumoniae [10]): ≤ 0.1 µg/mL

Molecule: CC1(C)S[C@@H]2[C@H](NC(=O)[C@H](N)c3ccc(O)cc3)C(=O)N2[C@H]1C(=O)O [AMOXICILLIN]
- MIC (Escherichia coli [1]): 256 µg/mL
- MIC (Escherichia coli [4]): 512 µg/mL
- MIC (Escherichia coli [5]): 4100 µg/mL (≈ 11200 µM)
- MIC (Escherichia coli [6]): 2 µg/mL
- MIC (Escherichia coli [7]): 4 µg/mL (≈ 10.9 µM)
- MIC (Escherichia coli [8]): 2050 µg/mL (≈ 5600 µM)
- MIC (Klebsiella pneumoniae [9]): 4100 µg/mL
- MIC (Klebsiella pneumoniae [10]): > 4100 µg/mL
- MIC (Escherichia coli [11]): 2 µg/mL
- MIC (Escherichia coli [12]): 4100 µg/mL (≈ 11200 µM)

B1: Beta-lactamase SHV-11 (Escherichia coli), Q7X575 (protein)
chain: MRYIRLCIISLLATLPLAVHASPQPLEQIKQSESQLSGRVGMIEMDLASGRTLTAWRADERFPMMSTFKVVLCGAVLARVDAGDEQLERKIHYRQQDLVDYSPVSEKHLADGMTVGELCAAAITMSDNSAANLLLATVGGPAGLTAFLRQIGDNVTRLDRWETELNEALPGDARDTTTPASMAATLRKLLTSQRLSARSQRQLLQWMVDDRVAGPLIRSVLPAGWFIADKTGAGERGARGIVALLGPNNKAERIVVIYLRDTPASMAERNQQIAGIGAALIEHWQR
- Km [23]: 50 µM
- kcat [23]: 0.5 s⁻¹
- Km [24]: 20 µM
- kcat [25]: < 0.01 s⁻¹
- kcat [26]: < 0.01 s⁻¹
- kcat [27]: < 0.01 s⁻¹
- Km [28]: 40 µM
- kcat [28]: 30 s⁻¹
- kcat [29]: < 0.01 s⁻¹
- Km [30]: 300 µM
- kcat [30]: 0.01 s⁻¹
- kcat [31]: < 0.01 s⁻¹
- Km [32]: 200 µM
- kcat [32]: 0.05 s⁻¹
- kcat/Km [33]: 10000 M⁻¹ s⁻¹
- kcat/Km [34]: 100000 M⁻¹ s⁻¹
- kcat/Km [35]: 750000 M⁻¹ s⁻¹
- kcat/Km [36]: 350000 M⁻¹ s⁻¹
- kcat/Km [37]: 250 M⁻¹ s⁻¹
